The subject of the test is OCI ovarian tumor lines (P7a, P2a, C2p) and ATCC/ECACC ovarian tumor lines (ES2 and OV90). Description: Alamar Blue viable cell assay with serial dilutions of paclitaxel or cisplatin, OCI vs ATCC/ECACC lines. The class given is cell-based, human. The conditions noted are these: WIT-oc medium, 5000 cells/well, 72 hrs drug incubation. As to the method: The next day serial dilutions of paclitaxel were added to the plate.
The next day serial dilutions of cisplatin were added to the plate. […] There was a dramatic difference in the effect of the paclitaxel or cisplatin on OCI cell lines vs. ATCC/ECACC cell lines.
Cisplatin is an example of a chemotherapeutic drug that causes DNA cross linking. Cisplatin binds to DNA and chemically crosslinks the two strands, which causes DNA damage during cell division. This elicits repair mechanisms, which in turn activate apoptosis when repair proves impossible. We plated the OCI ovarian tumor lines (P7a, P2a, C2p) and ATCC/ECACC ovarian tumor lines (ES2 and OV90) in WIT-oc medium (5000 cells/well) in plates in triplicate. The next day serial dilutions of cisplatin were added to the plate.

In the case of `N.N.[Cl][Pt][Cl]` [cisplatin], the “concentration that produced a 50% decrease in tumor cell numbers (LD90), fold higher in OCI lines compared to ATCC/ECACC lines” value is recorded as “more than 6 fold”.

Source of the values: patent US20160319239A1, “COMPOSITIONS AND METHODS FOR CULTURING CELLS FROM NORMAL HUMAN TUBO-OVARIAN EPITHELIUM AND HUMAN TUBO-OVARIAN TUMORS” (Whitehead Institute for Biomedical Research, priority 2011, published 2016).
